The target of this assay is T1, human 11β-HSD1 (Homo sapiens, UniProt P28845).
T1 construct: truncated (24-287aa) human 11β-HSD1 enzyme; made in house; host or cells: E. coli (lysate, not purified)
The experiment in a line: Human 11β-HSD1 enzymatic SPA assay. Conditions: truncated (24-287aa) human 11β-HSD1, apparent Ki from IC50 by Cheng-Prusoff. Format: biochemical. The procedure:
The ability of test compounds to inhibit human 11β-HSD1 enzymatic activity in vitro was evaluated in a Scintillation Proximity Assay (SPA). Tritiated-cortisone substrate, NADPH cofactor and titrated compound were incubated with truncated (24-287aa) human 11β-HSD1 enzyme at room temperature to allow the conversion to cortisol to occur. The reaction was stopped by adding a non-specific 11β-HSD inhibitor, glycyrrhetinic acid. The tritiated cortisol was captured by a mixture of an anti-cortisol monoclonal antibody and SPA beads coated with anti-mouse antibodies. The reaction plate was shaken at room temperature and the radiolabel bound to SPA beads was then measured on a scintillation counter. The 11β-HSD1 assay was carried out in 96-well microtiter plates in a total volume of […]. To start the assay, 188 μL of master mix which contained 75 nM ^3H-cortisone, 100 nM cortisone and 181 μM NADPH was added to the wells. In order to drive the reaction in the 11β-reductase direction, 1 mM glucose-6-phosphate (G-6-P) and 1 U/mL G-6-P dehydrogenase were also added as a NADPH generating system. Solid compound was dissolved in dimethyl sulfoxide to make a 10 mM stock followed by a subsequent 10-fold serial dilution with dimethyl sulfoxide. Each compound solution in dimethyl sulfoxide was 10-fold diluted in Tris/EDTA buffer (pH 7.4). 22 μL of titrated compound were then added in duplicate to the substrate. Reactions were initiated by the addition of 10 μL of 0.1 mg/mL E. coli lysates overexpressing 11β-HSD1 enzyme. After shaking and incubating plates for 30 minutes at room temperature, reactions were stopped by adding 10 μL of 1 mM glycyrrhetinic acid. The product, tritiated cortisol, was captured by adding 10 μL of 1 μM monoclonal mouse anti-cortisol antibodies and 50 μL of SPA beads coated with anti-mouse antibodies. After shaking for 30 minutes, plates were read in a Microbeta scintillation counter. Percent inhibition was calculated based on the background and the maximal signal. Wells that contained substrate without compound or enzyme were used as the background, while the wells that contained substrate and enzyme without any compound were considered as maximal signal. Percent of inhibition of each compound was calculated relative to the maximal signal and IC50 curves were generated. Assuming competitive inhibition the Cheng-Prusoff equation was used to calculate apparent Ki values from the IC50 values. This assay was applied to 11β-HSD2 as well, whereby 6 nM tritiated cortisol and 250 uM NAD^+ were used as substrate and cofactor, respectively.

pKi: −log10 of the molar value. A value given as a limit tells only on which side of the number the result lay.

The term pKi denotes the negative decadic logarithm of the Ki, by convention in mol/L.

T1 sequence (P28845 24-287): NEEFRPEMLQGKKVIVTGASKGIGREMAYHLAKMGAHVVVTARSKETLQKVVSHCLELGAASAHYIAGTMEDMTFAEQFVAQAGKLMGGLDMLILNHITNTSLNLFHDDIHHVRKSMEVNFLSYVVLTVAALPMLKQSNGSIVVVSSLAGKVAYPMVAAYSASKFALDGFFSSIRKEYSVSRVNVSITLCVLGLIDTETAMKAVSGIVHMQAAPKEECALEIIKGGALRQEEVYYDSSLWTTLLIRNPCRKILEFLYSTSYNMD

Consider `CC(C)(Oc1ccc(Cl)cc1)C(=S)NC1C2CC3CC1CC(S(C)(=O)=O)(C3)C2` (stereo not drawn) [Example 9, 2-(4-Chlorophenoxy)-2-methyl-N-[(E)-5-(methylsulfonyl)-2-adamantyl]propanethioamide], for which the pKi is 7.00 to 8.00.
The result for `CC(C)(Oc1ccc(Cl)cc1)C(=NC#N)NC1C2CC3CC1CC(S(N)(=O)=O)(C3)C2` (stereo not drawn) [Example 10, (1E)-N-[(E)-5-(Aminosulfonyl)-2-adamantyl]-2-(4-chlorophenoxy)-N′-cyano-2-methylpropanimidamide] reads 6.00 to 7.00; that for `CC(C)(Oc1ccccc1F)C(=NC#N)NC1C2CC3CC1CC(O)(C3)C2` (stereo not drawn) [Example 80, (1E)-N′-cyano-2-(2-fluorophenoxy)-N-[(E)-5-hydroxyadamantan-2-yl]-2-methylpropanimidamide], at least 8.00.
The result for `CC(C)(Oc1ccc(Cl)cc1)C(=NC#N)NC12CCC(C(N)=O)(CC1)CC2` [Example 47, 4-{[2-(4-chlorophenoxy)-N-cyano-2-methylpropanimidoyl]amino}bicyclo[2.2.2]octane-1-carboxamide] reads 7.00 to 8.00; that for `CC(C)(Oc1ccc(Cl)cc1)C(=NC#N)NC1C2CC3CC1CN(C3)C2` (stereo not drawn) [Example 39, (1E)-N-[(4s)-1-Azatricyclo[3.3.1.1^3,7]dec-4-yl]-2-(4-chlorophenoxy)-N′-cyano-2-methylpropanimidamide], under 6.00.
The result for `CC(C)(Oc1ccc(Cl)cc1F)C(=NC#N)NC1C2CC3CC(C2)CC1C3` (stereo not drawn) [Example 62, (1E)-N-[(E)-adamantan-2-yl]-2-(4-chloro-2-fluorophenoxy)-N-cyano-2-methylpropanimidamide] reads 7.00 to 8.00; that for `N#C/N=C(\Cc1ccccc1F)N[C@@H]1[C@@H]2C[C@@H]3C[C@H]1C[C@@](O)(C3)C2` [Example 5, (1E)-N′-Cyano-2-(2-fluorophenyl)-N-[(E)-5-hydroxy-2-adamantyl]ethanimidamide], under 6.00; that for `CC(C)(Oc1ccccc1)C(=NC#N)NC12CCC(C(F)F)(CC1)CC2` [Example 86, N-cyano-N-[4-(difluoromethyl)bicyclo[2.2.2]oct-1-yl]-2-methyl-2-phenoxypropanimidamide], 7.00 to 8.00.
As to `CC(C)(Oc1ccc(F)cc1F)C(=NC#N)NC1C2CC3CC1CC(O)(C3)C2` (stereo not drawn) [Example 51, (1E)-N′-cyano-2-(2,4-difluorophenoxy)-N-[(E)-5-hydroxyadamantan-2-yl]-2-methylpropanimidamide], the pKi is at least 8.00.
The same measure for `COC(=O)C12CC3CC(C1)C(N/C(=N/C#N)C(C)(C)Oc1ccc(Cl)cc1F)C(C3)C2` (stereo not drawn) [Example 63, methyl(E)-4-{[(1E)-2-(4-chloro-2-fluorophenoxy)-N-cyano-2-methylpropanimidoyl]amino}adamantane-1-carboxylate]: 7.00 to 8.00.
The result for `CC(C)(Oc1ccc(Cl)cc1)C(=NC#N)NC1C2CC3CC1CC(S(C)(=O)=O)(C3)C2` (stereo not drawn) [Example 19, (1E)-2-(4-Chlorophenoxy)-N-cyano-2-methyl-N-[(E)-5-(methylsulfonyl)-2-adamantyl]propanimidamide] reads 7.00 to 8.00.
`CC(C)(Oc1ccc(Cl)cn1)/C(=N\C#N)N[C@@H]1[C@@H]2C[C@@H]3C[C@H]1C[C@@](O)(C3)C2` [Example 58, (1E)-2-[(5-chloropyridin-2-yl)oxy]-N′-cyano-N-[(E)-5-hydroxyadamantan-2-yl]-2-methylpropanimidamide]: the pKi is 6.00 to 7.00.
For `CC(C)(Oc1ccccc1)C(=NC#N)NC12CCC(C#N)(CC1)C2` [Example 83, N′-cyano-N-(4-cyanobicyclo[2.2.1]hept-1-yl)-2-methyl-2-phenoxypropanimidamide], the negative-log Ki (pKi) is 6.00 to 7.00.
As for `CC(C)(Cc1ccc(Cl)cc1)C(=N)NC1C2CC3CC1CC(O)(C3)C2` (stereo not drawn) [Example 22, 3-(4-Chlorophenyl)-N-[(E)-5-hydroxy-2-adamantyl]-2,2-dimethylpropanimidamide], the negative-log Ki (pKi) was under 6.00.
For `CC(C)(Oc1ccc(Cl)cc1)C(=NC#N)NC1C2CC3CC1CC(O)(C3)C2` (stereo not drawn) [Example 8, (1E)-2-(4-Chlorophenoxy)-N′-cyano-N-[(E)-5-hydroxy-2-adamantyl]-2-methylpropanimidamide], the pKi is at least 8.00.
Turning to `CC(C)(Oc1ccc(F)cc1Cl)/C(=N\C#N)NC1C2CC3CC1CC(S(C)(=O)=O)(C3)C2` (stereo not drawn) [Example 18, (1E)-2-(2-Chloro-4-fluorophenoxy)-N-cyano-2-methyl-N-[(E)-5-(methylsulfonyl)-2-adamantyl]propanimidamide], the pKi was 7.00 to 8.00.
The result for `Cc1c(Cl)cccc1S(=O)(=O)N1CCC[C@H](C(=NC#N)NC2CCCCC2)C1` [Example 35, (3S)-1-[(3-Chloro-2-methylphenyl)sulfonyl]-N′-cyano-N-cyclohexylpiperidine-3-carboximidamide] reads under 6.00; that for `CC(C)(Oc1ccc(F)cc1F)C(=NC#N)NC1CCCCCCC1` [Example 65, N′-cyano-N-cyclooctyl-2-(2,4-difluorophenoxy)-2-methylpropanimidamide], 6.00 to 7.00.
The same measure for `[H]/N=C(/NC1C2CC3CC1CC(C(N)=O)(C3)C2)C(C)(C)Oc1ccccc1` (stereo not drawn) [Example 76, (E)-4-[(2-methyl-2-phenoxypropanimidoyl)amino]adamantane-1-carboxamide]: under 6.00; for `CC(C)(Oc1ccc(F)cc1F)C(=NC#N)NC1CC2CCC1C2` (stereo not drawn) [Example 56, N-[(exo)-bicyclo[2.2.1]hept-2-yl]-N-cyano-2-(2,4-difluorophenoxy)-2-methylpropanimidamide]: at least 8.00; for `CC(C)(Oc1ccccc1F)/C(=N\C#N)NC1C2CC3CC1CC(C#N)(C3)C2` (stereo not drawn) [Example 78, (1E)-N′-cyano-N-[(E)-5-cyanoadamantan-2-yl]-2-(2-fluorophenoxy)-2-methylpropanimidamide]: 7.00 to 8.00.
For `CC(C)(Oc1ccc(Cl)cc1)C(=NC#N)NC1CN2CCC1CC2` (stereo not drawn) [Example 40, N-1-Azabicyclo[2.2.2]oct-3-yl-2-(4-chlorophenoxy)-N′-cyano-2-methylpropanimidamide], the negative-log Ki (pKi) was under 6.00.
The same measure for `CC(C)(Oc1ccccc1)C(=NC#N)NC12CCC(C#N)(CC1)CC2` [Example 84, N′-cyano-N-(4-cyanobicyclo[2.2.2]oct-1-yl)-2-methyl-2-phenoxypropanimidamide]: 6.00 to 7.00.
The result for `CC(C)(OCc1ccc(C(F)(F)F)cc1)C(=NC#N)NC1C2CC3CC1CC(C#N)(C3)C2` (stereo not drawn) [Example 27, (1E)-N-Cyano-N-[(E)-5-cyano-2-adamantyl]-2-methyl-2-{[4-(trifluoromethyl)benzyl]oxy}propanimidamide] reads at least 8.00.
The result for `CC(C)(Oc1ccc(F)cc1Cl)C(=S)N[C@@H]1[C@@H]2C[C@@H]3C[C@H]1C[C@@](S(C)(=O)=O)(C3)C2` [Example 12, 2-(2-Chloro-4-fluorophenoxy)-2-methyl-N-[(E)-5-(methylsulfonyl)-2-adamantyl]propanethioamide] reads 7.00 to 8.00; that for “(1E)-N-(adamantan-1-yl)-N-cyano-2-(2,4-difluorophenoxy)-2-methylpropanimidamide [Example 71]”, 7.00 to 8.00; that for `CC(C)(Oc1ccccc1)/C(=N\C#N)N[C@@H]1[C@@H]2C[C@@H]3C[C@H]1C[C@@](C(N)=O)(C3)C2` [Example 50, (E)-4-{[(1E)-N-cyano-2-methyl-2-phenoxypropanimidoyl]amino}adamantane-1-carboxamide], at least 8.00.
For the molecule `CC(C)(Oc1ccc(F)cc1F)/C(=N\C#N)N[C@@H]1[C@@H]2C[C@@H]3C[C@H]1C[C@@](C#N)(C3)C2` [Example 52, (1E)-N′-cyano-N-[(E)-5-cyanoadamantan-2-yl]-2-(2,4-difluorophenoxy)-2-methylpropanimidamide], the pKi was 7.00 to 8.00.
The result for `CC(C)(/C(=N\C#N)N[C@@H]1[C@@H]2C[C@@H]3C[C@H]1C[C@@](C(=O)O)(C3)C2)N1CCN(c2ccc(C(F)(F)F)cn2)CC1` [Example 30, (E)-4-[((1E)-N-Cyano-2-methyl-2-{4-[5-(trifluoromethyl)pyridin-2-yl]piperazin-1-yl}propanimidoyl)amino]adamantane-1-carboxylic acid] reads under 6.00; that for `CC(C)(C(=NC#N)NC1C2CC3CC1CC(C(N)=O)(C3)C2)N1CCN(c2ccc(C(F)(F)F)cn2)CC1` (stereo not drawn) [Example 31, (E)-4-[((1E)-N-Cyano-2-methyl-2-{4-[5-(trifluoromethyl)pyridin-2-yl]piperazin-1-yl}propanimidoyl)amino]adamantane-1-carboxamide], 6.00 to 7.00.

For the origin of these results see patent US8507493B2 (AbbVie Inc., priority 2009, dated 2013).
